Test results taken from patent publication US11618747B2, “LXR modulators with bicyclic core moiety” (OrsoBio, Inc., priority 2018, dated 2023).

Legend:
full length (FL) LXRβ = molecular target: T1, full length (FL) LXRβ (Homo sapiens, UniProt P55055, DUP175-175); assay: LXR Gal4 reporter transient transfection assay (FL-M2H Gal4β); type: cell-based; conditions: HEK293 cells, full length LXRβ; read-out: FL-M2H Gal4β (EC50 range)
T1 construct: the full length (FL) proteins of LXRα (amino acids 1-447); NP005684; NP009052; expressed in transfected cells; host or cells: HEK293
T1 sequence (P55055 with tags, fused parts or gaps DUP175-175): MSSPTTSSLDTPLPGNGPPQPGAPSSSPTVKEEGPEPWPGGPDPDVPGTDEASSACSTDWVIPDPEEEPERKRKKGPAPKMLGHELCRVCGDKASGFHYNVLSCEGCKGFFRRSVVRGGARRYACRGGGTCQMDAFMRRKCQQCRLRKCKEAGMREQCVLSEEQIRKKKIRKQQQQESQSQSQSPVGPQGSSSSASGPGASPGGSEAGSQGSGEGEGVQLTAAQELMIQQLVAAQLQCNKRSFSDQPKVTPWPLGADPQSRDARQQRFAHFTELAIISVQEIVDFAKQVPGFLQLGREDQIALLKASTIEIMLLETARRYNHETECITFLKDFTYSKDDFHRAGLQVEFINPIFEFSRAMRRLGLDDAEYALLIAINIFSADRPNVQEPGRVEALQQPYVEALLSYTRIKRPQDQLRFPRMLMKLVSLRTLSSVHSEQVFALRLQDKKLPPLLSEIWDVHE
Summary of the method: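 Mammalian two-hybrid in HEK293 cells transiently transfected with NFkB-AD-fused FL or LBD LXR plus GAL4-BD-fused SRC1 or NCoR cofactor domains and GAL4-responsive firefly luciferase reporter, Renilla-normalized. Compound added 4 h post-transfection (≤0.2% DMSO), 16 h incubation, luminescence read.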

full length (FL) LXRα = molecular target: T2, full length (FL) LXRα (Homo sapiens, UniProt Q13133); assay: LXR Gal4 reporter transient transfection assay (FL-M2H Gal4α); type: cell-based; conditions: HEK293 cells, full length LXRα; read-out: FL-M2H Gal4α (EC50 range)
T2 construct: the full length (FL) proteins of LXRα (amino acids 1-447); NP005684; expressed in transfected cells; host or cells: HEK293
T2 sequence (Q13133 1-447): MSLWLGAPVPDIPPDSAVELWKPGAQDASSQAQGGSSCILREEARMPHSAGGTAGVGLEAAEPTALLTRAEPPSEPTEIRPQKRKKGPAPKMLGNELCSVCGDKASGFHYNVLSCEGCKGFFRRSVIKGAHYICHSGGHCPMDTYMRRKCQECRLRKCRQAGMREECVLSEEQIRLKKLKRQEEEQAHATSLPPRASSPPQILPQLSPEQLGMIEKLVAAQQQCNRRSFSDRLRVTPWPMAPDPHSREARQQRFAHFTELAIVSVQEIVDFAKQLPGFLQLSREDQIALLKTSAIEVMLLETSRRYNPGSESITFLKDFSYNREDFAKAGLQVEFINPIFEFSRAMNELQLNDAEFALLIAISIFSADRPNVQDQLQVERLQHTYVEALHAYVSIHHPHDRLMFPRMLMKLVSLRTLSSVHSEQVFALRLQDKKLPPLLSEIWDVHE
Experimental: The tested compounds were usually dissolved, tested and stored as 20 mM stock solutions in DMSO. Since sulfonyl acetic acid derivatives tend to decarboxylate under these conditions, these stock solutions were prepared, tested and stored as 20 mM DMSO stock solutions containing 100 mM trifluoroacetic Acid (5 equivalents). Sulfonyl acetic acid derivatives are shelf stable as solid at rt for long time as reported by Griesbrecht et al. (Synlett 2010:374) or Faucher et al. (J. Med. Chem. 2004; 47:18).
LXR Gal4 Reporter Transient Transfection Assays
LXRα and LXRβ activity status was determined via detection of interaction with coactivator and corepressor proteins in mammalian two-hybrid experiments (M2H). For this, via transient transfection the full length (FL) proteins of LXRα (amino acids 1-447; NP005684; SEQ ID NO:1) or LXRβ-(amino acids 1-461; NP009052; SEQ ID NO:2) or the ligand-binding domains (LBD) of LXRα (amino acids 155-447 SEQ ID NO:3) or LXRβ (amino acids 156-461; SEQ ID NO:4) were expressed from pCMV-AD (Stratagene) as fusions to the transcriptional activation domain of NFkB. As cofactors, domains of either the steroid receptor coactivator 1 (SRC1; amino acids 552-887; SEQ ID NO:5) or of the corepressor NCoR (amino acids 1906-2312; NP006302; SEQ ID NO:6) were expressed as fusions to the DNA binding domain of the yeast transcription factor GAL4 (from pCMV-BD; Stratagene). Interaction was monitored via activation of a coexpressed Firefly Luciferase Reporter gene under control of a promoter containing repetitive GAL4 response elements (vector pFRLuc; Stratagene). Transfection efficiency was controlled via cotransfection of constitutively active pRL-CMV Renila reniformis luciferase reporter (Promega). HEK293 cells were grown in minimum essential medium (MEM) with 2 mM L-glutamine and Earle's balanced salt solution supplemented with 8.3% fetal bovine serum, 0.1 mM non-essential amino acids, 1 mM sodium pyruvate, at 37° C. in 5% CO2. 3.5×10^4 cells/well were plated in 96-well cell culture plates in growth medium supplemented with 8.3% fetal bovine serum for 16-20 h to ˜90% confluency. For transfection, medium was taken off and LXR and cofactor expressing plasmids as well as the reporter plasmids are added in 30 μL OPTIMEM/well including polyethylene-imine (PEI) as vehicle. Typical amounts of plasmids transfected/well: pCMV-AD-LXR (5 ng), pCMV-BD-cofactor (5 ng), pFR-Luc (100 ng), pRL-CMV (0.5 ng). Compound stocks were prepared in DMSO, prediluted in MEM to a total volume of 120 μL, and added 4 h after addition of the transfection mixture (final vehicle concentration not exceeding 0.2%). Cells were incubated for additional 16 h, lysed for 10 min in 1× Passive Lysis Buffer (Promega) and Firefly and Renilla luciferase activities were measured sequentially in the same cell extract using buffers containing D-luciferine and coelenterazine, respectively. Measurements of luminescence were done in a BMG-luminometer.

[1] = molecular target: T3, LXRβ ligand-binding domain (Homo sapiens, UniProt P55055, DUP175-175); assay: TR-FRETβ activity assay (NCoA3 coactivator peptide recruitment); type: biochemical; conditions: TR-FRET, 1 μM 24(S)-25-epoxycholesterol prestimulation; read-out: FRETβ (EC50 range)
T3 construct: amino acids 156-461; NP009052; made in house; host or cells: E. coli
T3 sequence (P55055 with tags, fused parts or gaps DUP175-175 limits assumed): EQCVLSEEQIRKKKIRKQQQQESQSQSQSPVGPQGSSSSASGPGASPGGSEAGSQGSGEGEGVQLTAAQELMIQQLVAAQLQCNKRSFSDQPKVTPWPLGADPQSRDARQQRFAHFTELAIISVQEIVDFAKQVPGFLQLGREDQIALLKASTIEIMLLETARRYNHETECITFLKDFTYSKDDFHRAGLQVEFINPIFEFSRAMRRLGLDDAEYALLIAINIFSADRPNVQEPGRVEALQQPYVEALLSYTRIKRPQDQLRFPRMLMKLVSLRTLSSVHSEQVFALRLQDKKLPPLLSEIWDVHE
Summary of the method: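 GST-tagged human LXRβ LBD (aa 156-461, E. coli) at 76 nM with 400 nM biotinylated NCoA3 peptide in Tris/HCl pH 6.8, 240 mM KCl, BSA, 0.002% Triton-X-100, plus 1 μM 24(S)-25-epoxycholesterol as prestimulating agonist. Compounds at 50 μM down to 0.002 μM, 1 h at 4 °C. Coactivator recruitment by TR-FRET (Tb cryptate/XL665, 615/665 nm), triplicates.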

| SMILES | EC50 (full length (FL) LXRβ) [nM] | EC50 (full length (FL) LXRα) [nM] | EC50 [1] [nM] |
| --- | --- | --- | --- |
| Cc1ccc(S(=O)(=O)n2c(-c3cccc(N4CC(C(=O)O)C4)c3)c(-c3ccsc3C#N)c3cc(C#N)ccc32)cc1 [3/45] | 100 to 1000 | 100 to 1000 | 1000 to 10000 |
| Cc1ccc(S(=O)(=O)n2c(-c3cccc(-c4ccc(C(=O)O)nc4)c3)c(-c3ccsc3C#N)c3cc(F)ccc32)cc1 [3/47] | < 100 | < 100 | 100 to 1000 |
| Cc1ccc(S(=O)(=O)n2c(-c3cccc(-c4ccc(C(=O)O)c(Cl)c4)c3)c(-c3ccsc3C#N)c3cc(F)ccc32)cc1 [3/49] | < 100 | < 100 | 100 to 1000 |
| Cc1ccc(S(=O)(=O)n2c(-c3cccc(N4CCC(C)(C(=O)O)CC4)c3)c(-c3ccsc3C#N)c3cc(F)ccc32)cc1 [3/50] | < 100 | < 100 | 100 to 1000 |
| Cc1ccc(S(=O)(=O)n2c(-c3cccc(N4CC(C(=O)NC(C)(C)C(=O)O)C4)c3)c(-c3ccsc3C#N)c3cc(F)ccc32)cc1 [3/52] | 100 to 1000 | 100 to 1000 | 100 to 1000 |
| COc1cc(F)cc2c(-c3ccsc3C#N)c(-c3cccc(-c4ccc(C(=O)O)cc4)c3)n(S(=O)(=O)c3ccc(C)cc3)c12 [3/53] | < 100 | < 100 | < 100 |
| Cc1ccc(S(=O)(=O)n2c(-c3cccc(-c4ccc(C(=O)O)cc4)c3)c(-c3ccsc3C#N)c3cc(F)cc(O)c32)cc1 [3/54] | < 100 | < 100 | 100 to 1000 |
| Cc1ccc(S(=O)(=O)n2c(-c3cccc(-c4ccc(C(C)(O)C(=O)O)cc4)c3)c(-c3ccsc3C#N)c3cc(F)ccc32)cc1 (stereo not drawn) [3/55] | < 100 | < 100 | 100 to 1000 |
| O=C(O)c1ccc(-c2cccc(-c3c(-c4ccccc4C4COC4)c4cc(F)ccc4n3S(=O)(=O)c3ccc(Cl)cc3)c2)c(Cl)c1 [3/56] | < 100 | < 100 | < 100 |
| N#Cc1sccc1-c1c(-c2cccc(-c3ccc(C(=O)O)cc3Cl)c2)n(S(=O)(=O)c2ccc(Cl)cc2)c2ccc(F)cc12 [3/57] | < 100 | < 100 | 100 to 1000 |
| Cc1ccc(S(=O)(=O)n2c(-c3cccc(N4[C@@H]5CC[C@H]4C[C@@H](C(=O)O)C5)c3)c(-c3ccsc3C#N)c3cc(F)ccc32)cc1 [3/58] | < 100 | < 100 | 1000 to 10000 |
| N#Cc1sccc1-c1c(-c2cccc(N3CCC(C(=O)O)CC3)c2)n(S(=O)(=O)c2ccc(C(F)F)cc2)c2ccc(F)cc12 [3/60] | < 100 | < 100 | 100 to 1000 |
| O=C(O)c1ccc(-c2cccc(-c3c(-c4ccccc4C4(F)CNC4)c4cc(F)ccc4n3S(=O)(=O)c3ccc(C(F)F)cc3)c2)c(Cl)c1 [3/61] | 100 to 1000 | 100 to 1000 | 100 to 1000 |
| CN1CC(F)(c2ccccc2-c2c(-c3cccc(-c4ccc(C(=O)O)cc4Cl)c3)n(S(=O)(=O)c3ccc(C(F)F)cc3)c3ccc(F)cc23)C1 [3/62] | < 100 | 100 to 1000 | 100 to 1000 |
| O=C(O)c1ccc(-c2cccc(-c3c(-c4ccsc4C4COC4)c4cc(F)ccc4n3S(=O)(=O)c3ccc(C(F)F)cc3)c2)c(Cl)c1 [3/63] | < 100 | < 100 | < 100 |
| Cc1ccc(S(=O)(=O)n2c(-c3cccc(C4CC5(CC(C(=O)O)C5)C4)c3)c(-c3ccsc3C#N)c3cc(F)ccc32)cc1 (stereo not drawn) [3/65] | < 100 | < 100 | 100 to 1000 |
| CC1(C)CCN(S(=O)(=O)n2c(-c3cccc(-c4ccc(C(=O)O)cc4)c3)c(-c3ccsc3C#N)c3ccccc32)CC1 [3/66] | 100 to 1000 | 100 to 1000 | 1000 to 10000 |
| N#Cc1cccc(C#N)c1-c1c(-c2cccc(N3CC(C(=O)O)C3)c2)n(S(=O)(=O)c2ccc(C(F)F)cc2)c2ccc(F)cc12 [3/67] | 100 to 1000 | 100 to 1000 | 100 to 1000 |
| N#Cc1cccc(C#N)c1-c1c(-c2cccc(C3CC3C(=O)O)c2)n(S(=O)(=O)c2ccc(C(F)F)cc2)c2ccc(F)cc12 (stereo not drawn) [3/68] | < 100 | < 100 | 100 to 1000 |
